Data reported in PubChem BioAssay (NCI).
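In this assay, cells in 96-well plates receive the compound at five concentrations for 48 hours. Endpoints are linearly interpolated between the surrounding concentrations. GI50 is the concentration that inhibits growth by half. TGI: concentration producing complete growth inhibition.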

Experiments:
Experiment in all cases: NCI anticancer screen, dose series, 48 h
MALME-3M melanoma = tested on: MALME-3M melanoma
SN12C renal = tested on: SN12C renal
HS 578T breast = tested on: HS 578T breast
SNB-75 CNS = tested on: SNB-75 CNS
HT29 colon = tested on: HT29 colon
NCI-H23 lung = tested on: NCI-H23 lung
BT-549 breast = tested on: BT-549 breast
T-47D breast = tested on: T-47D breast
KM12 colon = tested on: KM12 colon
SK-MEL-5 melanoma = tested on: SK-MEL-5 melanoma

O=C1/C(=C\c2ccc(F)cc2)CN(C(=O)c2ccccc2F)C/C1=C\c1ccc(F)cc1
GI50 (MALME-3M melanoma): 2 µM | TGI (MALME-3M melanoma): 4.09 µM | GI50 (SN12C renal): 1.68 µM | TGI (SN12C renal): 3.37 µM | GI50 (HS 578T breast): 3.66 µM | TGI (HS 578T breast): 20.3 µM | GI50 (SNB-75 CNS): 2.64 µM | TGI (SNB-75 CNS): 10.9 µM | GI50 (HT29 colon): 0.373 µM | TGI (HT29 colon): 1.35 µM | GI50 (NCI-H23 lung): 2.09 µM | TGI (NCI-H23 lung): 4.91 µM | GI50 (BT-549 breast): 1.85 µM | TGI (BT-549 breast): 3.41 µM | GI50 (T-47D breast): 2.28 µM | TGI (T-47D breast): 7.02 µM | GI50 (KM12 colon): 0.371 µM | TGI (KM12 colon): 1.32 µM | GI50 (SK-MEL-5 melanoma): 1.45 µM | TGI (SK-MEL-5 melanoma): 2.83 µM

Brc1ccccc2cc(-c3ccccc3)nc1-2
TGI (MALME-3M melanoma): 20.4 µM | TGI (SN12C renal): 19.4 µM | TGI (HS 578T breast): > 100 µM | TGI (SNB-75 CNS): 51.5 µM | TGI (HT29 colon): > 90.3 µM | TGI (NCI-H23 lung): 21.2 µM | TGI (BT-549 breast): 56.5 µM | GI50 (T-47D breast): 15.7 µM | TGI (T-47D breast): > 100 µM | TGI (KM12 colon): 32.8 µM | TGI (SK-MEL-5 melanoma): 36.2 µM

CCN(CC)CCNC(=O)c1cccc2c1-c1ccccc1C2=O
GI50 (MALME-3M melanoma): > 100 µM | TGI (MALME-3M melanoma): > 100 µM | GI50 (SN12C renal): > 100 µM | TGI (SN12C renal): > 100 µM | GI50 (HS 578T breast): > 100 µM | TGI (HS 578T breast): > 100 µM | GI50 (SNB-75 CNS): > 100 µM | TGI (SNB-75 CNS): > 100 µM | GI50 (HT29 colon): > 100 µM | TGI (HT29 colon): > 100 µM | GI50 (NCI-H23 lung): > 100 µM | TGI (NCI-H23 lung): > 100 µM | GI50 (BT-549 breast): > 100 µM | TGI (BT-549 breast): > 100 µM | GI50 (T-47D breast): > 100 µM | TGI (T-47D breast): > 100 µM | GI50 (KM12 colon): > 100 µM | TGI (KM12 colon): > 100 µM | GI50 (SK-MEL-5 melanoma): > 100 µM | TGI (SK-MEL-5 melanoma): > 100 µM

CN1CCC2(CC1)N=C(SCC(=O)Nc1cnc3ccccc3c1)C(c1ccc(Br)cc1)=N2
GI50 (MALME-3M melanoma): 1.78 µM | TGI (MALME-3M melanoma): 3.36 µM | GI50 (SN12C renal): 2.1 µM | TGI (SN12C renal): 4.99 µM | GI50 (HS 578T breast): 2.23 µM | TGI (HS 578T breast): 7.27 µM | GI50 (SNB-75 CNS): 2.04 µM | TGI (SNB-75 CNS): 9.65 µM | GI50 (HT29 colon): 1.85 µM | TGI (HT29 colon): 3.64 µM | GI50 (NCI-H23 lung): 4.3 µM | TGI (NCI-H23 lung): 16.3 µM | GI50 (BT-549 breast): 12 µM | TGI (BT-549 breast): 24.4 µM | GI50 (T-47D breast): 2.24 µM | TGI (T-47D breast): 7.35 µM | GI50 (KM12 colon): 2.62 µM | TGI (KM12 colon): 6.55 µM | GI50 (SK-MEL-5 melanoma): 1.68 µM | TGI (SK-MEL-5 melanoma): 3.07 µM

CN1CCN(CCCNC(=O)c2c3c(n4ccccc24)C(=O)c2ncccc2C3=O)CC1
GI50 (MALME-3M melanoma): 0.376 µM | TGI (MALME-3M melanoma): 0.99 µM | GI50 (SN12C renal): 1.42 µM | TGI (SN12C renal): 3.61 µM | GI50 (HS 578T breast): 5.32 µM | TGI (HS 578T breast): 51.8 µM | GI50 (SNB-75 CNS): 3.92 µM | TGI (SNB-75 CNS): 16.3 µM | GI50 (HT29 colon): 0.612 µM | TGI (HT29 colon): 2.96 µM | GI50 (NCI-H23 lung): 0.674 µM | TGI (NCI-H23 lung): 3.08 µM | GI50 (BT-549 breast): 7.24 µM | TGI (BT-549 breast): 20.6 µM | GI50 (T-47D breast): 1.88 µM | TGI (T-47D breast): 5.28 µM | GI50 (KM12 colon): 1.28 µM | TGI (KM12 colon): 19.5 µM | GI50 (SK-MEL-5 melanoma): 0.547 µM | TGI (SK-MEL-5 melanoma): 1.54 µM

NC(=O)c1c(NC(=O)c2cccs2)sc2c1CCC(=O)C2
GI50 (MALME-3M melanoma): 1.85 µM | TGI (MALME-3M melanoma): 4.58 µM | GI50 (SN12C renal): 2.95 µM | TGI (SN12C renal): > 100 µM | GI50 (HS 578T breast): 3.27 µM | TGI (HS 578T breast): > 100 µM | GI50 (SNB-75 CNS): 1.7 µM | TGI (SNB-75 CNS): 9.05 µM | GI50 (HT29 colon): 3.12 µM | TGI (HT29 colon): > 100 µM | GI50 (NCI-H23 lung): 1.83 µM | TGI (NCI-H23 lung): 7.34 µM | GI50 (BT-549 breast): 2.08 µM | TGI (BT-549 breast): 8.41 µM | GI50 (T-47D breast): 2.05 µM | TGI (T-47D breast): > 100 µM | GI50 (KM12 colon): 2.18 µM | TGI (KM12 colon): 9.52 µM | GI50 (SK-MEL-5 melanoma): 1.62 µM | TGI (SK-MEL-5 melanoma): 3.19 µM

COC(=O)[C@]12CC[C@@H](C)[C@H](C)[C@@H]1C1=CC[C@@H]3[C@@]4(C)C(C=O)=C[C@@](C)(CO)[C@@H]4[C@H](O)C[C@@]3(C)[C@]1(C)CC2
GI50 (MALME-3M melanoma): 2.62 µM | TGI (MALME-3M melanoma): 10.4 µM | GI50 (SN12C renal): 4.85 µM | TGI (SN12C renal): 17.3 µM | GI50 (HS 578T breast): 4.82 µM | TGI (HS 578T breast): 26.4 µM | GI50 (SNB-75 CNS): 2.72 µM | TGI (SNB-75 CNS): 19.3 µM | GI50 (HT29 colon): 2.44 µM | TGI (HT29 colon): 7.54 µM | GI50 (NCI-H23 lung): 2.97 µM | TGI (NCI-H23 lung): 12.2 µM | GI50 (BT-549 breast): 3.27 µM | TGI (BT-549 breast): 14.1 µM | GI50 (T-47D breast): 2.11 µM | TGI (T-47D breast): 13.2 µM | GI50 (KM12 colon): 4.02 µM | TGI (KM12 colon): 15.3 µM | GI50 (SK-MEL-5 melanoma): 5.8 µM | TGI (SK-MEL-5 melanoma): 18.4 µM

CCN1CCN(c2nc(C)cc(NCc3cc(Nc4ccnc5cc(Cl)ccc45)ccc3F)n2)CC1
GI50 (MALME-3M melanoma): 1.78 µM | TGI (MALME-3M melanoma): 3.66 µM | GI50 (SN12C renal): 1.94 µM | TGI (SN12C renal): 6.41 µM | GI50 (HS 578T breast): 1.72 µM | TGI (HS 578T breast): 5.29 µM | GI50 (SNB-75 CNS): 1.37 µM | TGI (SNB-75 CNS): 3.52 µM | GI50 (HT29 colon): 1.96 µM | TGI (HT29 colon): 6.17 µM | GI50 (NCI-H23 lung): 2.62 µM | TGI (NCI-H23 lung): 13 µM | GI50 (BT-549 breast): 1.62 µM | TGI (BT-549 breast): 4.28 µM | GI50 (T-47D breast): 1.73 µM | TGI (T-47D breast): 5.07 µM | GI50 (KM12 colon): 2.95 µM | TGI (KM12 colon): 10.5 µM | GI50 (SK-MEL-5 melanoma): 1.7 µM | TGI (SK-MEL-5 melanoma): 3.12 µM

CCCCC(=O)N(c1ccc(Nc2c3ccccc3nc3cc([N+](=O)[O-])ccc23)cc1)S(C)(=O)=O
GI50 (MALME-3M melanoma): 14.3 µM | TGI (MALME-3M melanoma): 34.8 µM | GI50 (SN12C renal): 4.86 µM | TGI (SN12C renal): > 100 µM | GI50 (HS 578T breast): 6.15 µM | TGI (HS 578T breast): 48.3 µM | GI50 (SNB-75 CNS): 4.7 µM | TGI (SNB-75 CNS): 64.8 µM | GI50 (HT29 colon): 13.6 µM | TGI (HT29 colon): 60.3 µM | GI50 (NCI-H23 lung): 12.6 µM | TGI (NCI-H23 lung): 42.5 µM | GI50 (BT-549 breast): 18.4 µM | TGI (BT-549 breast): 80.6 µM | GI50 (T-47D breast): 0.588 µM | TGI (T-47D breast): 6.73 µM | GI50 (KM12 colon): 2.63 µM | TGI (KM12 colon): 19.3 µM | GI50 (SK-MEL-5 melanoma): 4.25 µM | TGI (SK-MEL-5 melanoma): 18.3 µM

CC(=Nc1ccc(N(C)C)cc1)c1ccccc1
TGI (MALME-3M melanoma): 25.9 µM | TGI (SN12C renal): 32.1 µM | TGI (HS 578T breast): 65.1 µM | TGI (SNB-75 CNS): 77.4 µM | TGI (HT29 colon): 73.4 µM | TGI (NCI-H23 lung): > 100 µM | TGI (BT-549 breast): 33.2 µM | TGI (T-47D breast): 55.4 µM | TGI (KM12 colon): > 100 µM | TGI (SK-MEL-5 melanoma): 29.7 µM

N#C/C(=C\c1cc(O)c(O)c(O)c1)C(N)=O
TGI (MALME-3M melanoma): > 100 µM | TGI (SN12C renal): > 100 µM | TGI (HS 578T breast): > 100 µM | TGI (SNB-75 CNS): > 100 µM | TGI (HT29 colon): > 100 µM | TGI (NCI-H23 lung): > 100 µM | TGI (BT-549 breast): > 100 µM | TGI (T-47D breast): > 100 µM | TGI (KM12 colon): > 100 µM | TGI (SK-MEL-5 melanoma): > 100 µM

C/C(=N\NC(=O)c1ccncc1)c1sc(-n2nc(-c3ccccc3)cc2-c2ccccc2)nc1C
TGI (MALME-3M melanoma): > 100 µM | TGI (SN12C renal): > 100 µM | TGI (HS 578T breast): > 100 µM | TGI (SNB-75 CNS): > 100 µM | TGI (HT29 colon): > 100 µM | TGI (NCI-H23 lung): > 31.6 µM | TGI (BT-549 breast): > 31.6 µM | TGI (T-47D breast): > 31.6 µM | TGI (KM12 colon): > 100 µM | TGI (SK-MEL-5 melanoma): > 31.6 µM

Nc1[nH]nc2nc(-c3cc(Cl)ccc3Cl)cc(-c3ccc(F)cc3)c12
GI50 (MALME-3M melanoma): 27.2 µM | TGI (MALME-3M melanoma): 59.3 µM | GI50 (SN12C renal): 20.4 µM | TGI (SN12C renal): 38.6 µM | GI50 (HS 578T breast): 24.1 µM | TGI (HS 578T breast): 53.7 µM | GI50 (SNB-75 CNS): 51.5 µM | TGI (SNB-75 CNS): > 100 µM | GI50 (HT29 colon): 32.5 µM | TGI (HT29 colon): > 100 µM | GI50 (NCI-H23 lung): 28.8 µM | TGI (NCI-H23 lung): 72.1 µM | GI50 (BT-549 breast): 14.3 µM | TGI (BT-549 breast): 31.3 µM | GI50 (T-47D breast): 20.2 µM | TGI (T-47D breast): > 100 µM | GI50 (KM12 colon): 22.6 µM | TGI (KM12 colon): 58 µM | GI50 (SK-MEL-5 melanoma): 16.6 µM | TGI (SK-MEL-5 melanoma): 34.1 µM
